Experimental data reported in ChEMBL document CHEMBL1201862, “PubChem BioAssay data set” (2004).
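Growth conditions: 96-well plates. Treatment: test compound, 48 hours, 5 concentrations. Analysis: linear interpolation between bracketing concentrations; unreached endpoints set to highest concentration. GI50 = concentration required for 50% inhibition of growth.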 Active and inactive are the calls of the source. Rule as the data show it: active = GI50 up to about 1.1 µM and inactive = higher.

What was measured:
Experiment in all cases: inhibition of tumour cell growth, NCI panel, 48 h
[1] = tested on: 786-0
[2] = tested on: A549
[3] = tested on: ACHN
[4] = tested on: CAKI-1
[5] = tested on: COLO 205
[6] = tested on: HCT-116
[7] = tested on: HOP-92
[8] = tested on: HT-29
[9] = tested on: Hs-578T
[10] = tested on: K562
[11] = tested on: LOX IMVI
[12] = tested on: NCI-H460
[13] = tested on: OVCAR-4
[14] = tested on: PC-3
[15] = tested on: UACC-62
[16] = tested on: UO-31
[17] = tested on: HOP-62
[18] = tested on: SF-295
[19] = tested on: SF-539

SMILES | GI50 [1] | GI50 [2] | GI50 [3] | GI50 [4] | GI50 [5] | GI50 [6] | GI50 [7] | GI50 [8] | GI50 [9] | GI50 [10] | GI50 [11] | GI50 [12] | GI50 [13] | GI50 [14] | GI50 [15] | GI50 [16] | GI50 [17] | GI50 [18] | GI50 [19]
N#Cc1c2ccc([N+](=O)[O-])cc2c(=O)n2c1sc1ccccc12 | 24.2 µM (inactive) | 12.2 µM (inactive) | 32.4 µM (inactive) | 24.4 µM (inactive) | 6.87 µM (inactive) | 11.1 µM (inactive) | 13.5 µM (inactive) | 33.7 µM (inactive) | 48 µM (inactive) | 11.1 µM (inactive) | 25.2 µM (inactive) | 27.5 µM (inactive) | 20.6 µM (inactive) | 14.8 µM (inactive) | 28 µM (inactive) | 22.6 µM (inactive) |  |  | 
O=C(Sc1c(-c2ccccc2)c(=O)n(-c2ccccc2)c(=S)n1-c1ccccc1)c1ccccc1 | > 100 µM (inactive) | > 100 µM (inactive) | > 100 µM (inactive) | > 100 µM (inactive) | > 100 µM (inactive) | 56 µM (inactive) | 32.1 µM (inactive) | 57.9 µM (inactive) | 33.7 µM (inactive) | 29 µM (inactive) | 26.4 µM (inactive) | > 100 µM (inactive) | > 100 µM (inactive) | > 100 µM (inactive) | 33.5 µM (inactive) | 41.6 µM (inactive) | > 100 µM (inactive) | 47.4 µM (inactive) | 
CCOC(NC(=O)CC)(C(F)(F)F)C(F)(F)F | > 100 µM (inactive) | > 100 µM (inactive) | > 100 µM (inactive) | > 100 µM (inactive) | > 100 µM (inactive) | > 100 µM (inactive) | > 100 µM (inactive) | > 100 µM (inactive) | > 100 µM (inactive) | > 100 µM (inactive) | > 100 µM (inactive) | > 100 µM (inactive) |  | > 100 µM (inactive) | > 100 µM (inactive) | > 100 µM (inactive) | > 100 µM (inactive) | > 100 µM (inactive) | > 100 µM (inactive)
CC(=O)Nc1ccc2[nH]c(C(=O)N3CC(CCl)c4c3cc([N+](=O)[O-])c3ccccc43)cc2c1 (centres undefined) | 10.7 µM (inactive) | 0.393 µM (active) | 5.57 µM (inactive) | 3.93 µM (inactive) | 4.98 µM (inactive) | 6.41 µM (inactive) | 2.5 µM (inactive) | 29.9 µM (inactive) | 4.26 µM (inactive) | 0.601 µM (active) | 9.2 µM (inactive) | 12.9 µM (inactive) | > 36.3 µM (inactive) | 1.2 µM (inactive) | 4.52 µM (inactive) | 0.805 µM (active) |  | 7.33 µM (inactive) | 
C=CCN(c1cc(OC)c2[nH]c(C(=O)O)c(C)c2c1[N+](=O)[O-])S(C)(=O)=O | > 100 µM (inactive) | > 100 µM (inactive) | > 100 µM (inactive) | > 100 µM (inactive) | > 100 µM (inactive) | > 100 µM (inactive) |  |  | > 100 µM (inactive) | > 100 µM (inactive) | > 100 µM (inactive) | > 100 µM (inactive) | > 100 µM (inactive) | > 100 µM (inactive) | > 100 µM (inactive) | > 100 µM (inactive) | > 100 µM (inactive) | > 100 µM (inactive) | > 100 µM (inactive)
CO/C(=N\N=C(/C)C(F)(F)F)c1ccncc1 |  |  |  | > 100 µM (inactive) | > 100 µM (inactive) | > 100 µM (inactive) | > 100 µM (inactive) | > 100 µM (inactive) | > 100 µM (inactive) | > 100 µM (inactive) |  | > 100 µM (inactive) | > 100 µM (inactive) | 38.7 µM (inactive) | > 100 µM (inactive) | > 100 µM (inactive) | > 100 µM (inactive) |  | 
NC(=O)C1CCCN1C(=O)C(Cc1c[nH]cn1)NC(=O)C1CCCC1 (centres undefined) | > 100 µM (inactive) | > 100 µM (inactive) | > 100 µM (inactive) | > 100 µM (inactive) | > 100 µM (inactive) | > 100 µM (inactive) | > 100 µM (inactive) | > 100 µM (inactive) | > 100 µM (inactive) | > 100 µM (inactive) | > 100 µM (inactive) | > 100 µM (inactive) | > 100 µM (inactive) | > 100 µM (inactive) | > 100 µM (inactive) | > 100 µM (inactive) | > 100 µM (inactive) | > 100 µM (inactive) | 
COc1cc([C@@H]2c3cc4c(cc3[C@@H](/N=C/c3ccc(C(=O)O[C@@H](C(=O)O[C@H]5C[C@@]6(O)[C@@H](OC(=O)c7ccccc7)[C@@H]7[C@]8(OC(C)=O)CO[C@@H]8C[C@H](O)[C@@]7(C)C(=O)[C@H](OC(C)=O)C(=C5C)C6(C)C)[C@@H](NC(=O)c5ccccc5)c5ccccc5)cc3)[C@H]3COC(=O)[C@H]23)OCO4)cc(OC)c1O | 0.0748 µM (active) | 0.0266 µM (active) | 5.08 µM (inactive) | 6.31 µM (inactive) | 0.00891 µM (active) | 0.027 µM (active) | > 36.4 µM (inactive) | 0.0103 µM (active) | 0.0459 µM (active) | < 0.005 µM (active) | 0.11 µM (active) | 0.00929 µM (active) |  | 0.0138 µM (active) | 0.0815 µM (active) |  | 0.246 µM (active) | 0.171 µM (active) | 0.0141 µM (active)
O=P1(c2ccccc2)C2=CCC=CC2C(c2ccccc2)N1Cc1ccccc1 (centres undefined) | 15.5 µM (inactive) | 14.7 µM (inactive) | 16.7 µM (inactive) | 13.7 µM (inactive) | 15.5 µM (inactive) | 15.2 µM (inactive) | 12.4 µM (inactive) | 11.6 µM (inactive) | 19 µM (inactive) | 16.1 µM (inactive) |  | 13 µM (inactive) |  | 13.4 µM (inactive) | 8.63 µM (inactive) | 12.4 µM (inactive) | 19.6 µM (inactive) | 13.5 µM (inactive) | 17.4 µM (inactive)
N#CC(/N=N/c1ccccc1)c1nc2ccccc2o1 (centres undefined) | 21.8 µM (inactive) | 27.4 µM (inactive) | 19.3 µM (inactive) | 31.9 µM (inactive) | 19.3 µM (inactive) | 21.7 µM (inactive) | 15 µM (inactive) | 61.4 µM (inactive) | 22.3 µM (inactive) | 45.1 µM (inactive) |  | 96.4 µM (inactive) | 11.2 µM (inactive) | 29.5 µM (inactive) | 37.7 µM (inactive) | 56.6 µM (inactive) | 20.3 µM (inactive) | 17.4 µM (inactive) | 14.7 µM (inactive)
COC(=O)C(Cc1c[nH]c2ccccc12)NP(=O)(O)OCC1OC(n2cc(Br)c(=O)[nH]c2=O)CC1O (centres undefined) | > 100 µM (inactive) | > 100 µM (inactive) | > 100 µM (inactive) |  | > 100 µM (inactive) | > 100 µM (inactive) | > 100 µM (inactive) | > 100 µM (inactive) | > 100 µM (inactive) | > 100 µM (inactive) | > 100 µM (inactive) | > 100 µM (inactive) | > 100 µM (inactive) | > 100 µM (inactive) | > 100 µM (inactive) | > 100 µM (inactive) | > 100 µM (inactive) | > 100 µM (inactive) | > 100 µM (inactive)
CN(C)c1nc2nonc2nc1Nc1ccccc1 | > 100 µM (inactive) | > 100 µM (inactive) | > 100 µM (inactive) |  | > 100 µM (inactive) | > 100 µM (inactive) | > 100 µM (inactive) | > 100 µM (inactive) | > 100 µM (inactive) | > 100 µM (inactive) | > 100 µM (inactive) | > 100 µM (inactive) |  | > 100 µM (inactive) | > 100 µM (inactive) | > 100 µM (inactive) | > 100 µM (inactive) | > 100 µM (inactive) | 
COc1ccc2c(c1)CC[C@@H]1[C@@H]2CC[C@]2(C)[C@@H](O)/C(=C/c3ccncc3)C[C@@H]12 | 14.2 µM (inactive) | 9.84 µM (inactive) | 26.5 µM (inactive) | 14.8 µM (inactive) | 3.94 µM (inactive) | 11 µM (inactive) | 14 µM (inactive) | 3.99 µM (inactive) | 12.8 µM (inactive) |  |  | 14.2 µM (inactive) | 23.2 µM (inactive) | 10.1 µM (inactive) | 13.8 µM (inactive) | 14 µM (inactive) | 16.9 µM (inactive) | 10.5 µM (inactive) | 
Cc1sc2nc3n(c(=O)c2c1C)N=CN(c1ccc(F)cc1)C3 | 19.5 µM (inactive) | 43.9 µM (inactive) | 29 µM (inactive) | > 100 µM (inactive) | > 100 µM (inactive) | 23.8 µM (inactive) | 24.2 µM (inactive) | > 100 µM (inactive) | 22.4 µM (inactive) | > 100 µM (inactive) | > 100 µM (inactive) | 44.5 µM (inactive) | 18.7 µM (inactive) | > 100 µM (inactive) | > 100 µM (inactive) | > 100 µM (inactive) | 23.8 µM (inactive) | 72.9 µM (inactive) | 
C=C1C[C@@H]2CC[C@@]34CC5O[C@H]6C(O[C@H]7CC[C@H](CC(=O)O[C@@H]8[C@@H](C)[C@@H]9O[C@@H]%10C[C@]%11(C[C@@H]%12O[C@]%13(C[C@H](C)[C@@H]%14O[C@@H]%15CC(C(O)CO)O[C@@H]%15C[C@@H]%14O%13)C[C@H](C)[C@@H]%12O%11)O[C@@H]%10C[C@@H]9O[C@H]8CC8O[C@@H](CC[C@@H]1O2)C[C@@H](C)C8(O)CO)O[C@@H]7[C@@H]6O3)[C@H]5O4 (some centres undefined) | 0.804 µM (active) | > 0.891 µM (active) | > 1 µM (active) | > 1 µM (active) | > 0.65 µM (active) | 0.627 µM (active) | > 0.615 µM (active) |  | 0.0627 µM (active) | > 0.933 µM (active) | 0.48 µM (active) | 0.53 µM (active) | > 1 µM (active) | 0.995 µM (active) | 0.481 µM (active) | > 1 µM (active) | > 1 µM (active) | > 0.796 µM (active) | 
